Test results from ChEMBL document CHEMBL4184299, “Regioselective and efficient enzymatic synthesis of antimicrobial andrographolide derivatives” (Bioorg Med Chem Lett, 2018).
≈ marks a conversion by molar mass, not a printed value. Calls of active or inactive are those of the source. No cut-off for these calls is given here.

Legend:
Micrococcus luteus = assay: Antimicrobial activity against Micrococcus luteus; type: functional
Staphylococcus aureus = assay: Antimicrobial activity against Staphylococcus aureus; type: functional
Pseudomonas fluorescens = assay: Antimicrobial activity against Pseudomonas fluorescens; type: functional
Escherichia coli [1] = assay: Antimicrobial activity against Escherichia coli; type: functional
Aspergillus fumigatus = assay: Antimicrobial activity against Aspergillus fumigatus; type: functional
Rhizopus arrhizus = assay: Antimicrobial activity against Rhizopus oryzae; type: functional
Candida albicans = assay: Antimicrobial activity against Candida albicans; type: functional
[2] = Hemolytic activity in human RBC at 25 ug/ml relative to control; type: ADME, cell-based, Erythrocyte; details: red blood cells (erythrocytes), read-out: Activity
Escherichia coli [3] = assay: Disruption of membrane integrity in Escherichia coli assessed as protein leakage at MIC; type: functional, organism-based
Escherichia coli [4] = assay: Induction of membrane permeability in Escherichia coli at MIC by DAPI/FITC/propidium iodide staining-based fluorescent microscopic analysis; type: functional, organism-based
Escherichia coli [5] = assay: Induction of membrane disruption in Escherichia coli assessed as blurred membranes at MIC after 60 mins by SEM analysis; type: functional, organism-based
Escherichia coli [6] = assay: Induction of membrane disruption in Escherichia coli assessed as deflated membranes at MIC after 60 mins by SEM analysis; type: functional, organism-based
Escherichia coli [7] = assay: Induction of membrane disruption in Escherichia coli assessed as translucent membranes at MIC after 60 mins by SEM analysis; type: functional, organism-based

SMILES | MIC (Micrococcus luteus) [µg/mL] | MIC (Staphylococcus aureus) [µg/mL] | MIC (Pseudomonas fluorescens) [µg/mL] | MIC (Escherichia coli [1]) [µg/mL] | MIC (Aspergillus fumigatus) [µg/mL] | MIC (Rhizopus arrhizus) [µg/mL] | MIC (Candida albicans) [µg/mL] | hemolysis at 25 ug/ml [2] [%] | Activity (Escherichia coli [3]) | Activity (Escherichia coli [4]) | Activity (Escherichia coli [5]) | Activity (Escherichia coli [6]) | Activity (Escherichia coli [7])
C=C1CC[C@@H]2[C@](C)(CO)[C@H](O)CC[C@@]2(C)[C@@H]1C/C=C1/C(=O)OC[C@H]1OC(=O)CCCCCCCCCCC | 16 (≈ 30 µM) | 16 (≈ 30 µM) | > 128 | 64 (≈ 120 µM) | > 128 | > 128 | 32 (≈ 60.1 µM) | 46 | Active |  |  |  | 
CN[C@@H]1[C@@H](O)[C@@H](O[C@@H]2[C@@H](O)[C@H](O[C@H]3O[C@H](CN)CC[C@H]3N)[C@@H](N)C[C@H]2N)OC[C@]1(C)O.O=S(=O)(O)O |  | 0.5 | 0.5 |  |  |  |  |  |  |  |  |  | 
C[C@@H]1[C@H](O)[C@@H](C)/C=C/C=C/C=C/C=C/C=C/C=C/C=C/[C@H](O[C@@H]2O[C@H](C)[C@@H](O)[C@H](N)[C@@H]2O)C[C@@H]2O[C@](O)(C[C@@H](O)C[C@@H](O)[C@H](O)CC[C@@H](O)C[C@@H](O)CC(=O)O[C@H]1C)C[C@H](O)[C@H]2C(=O)O [AMPHOTERICIN B] |  |  |  |  | 0.5 (≈ 0.541 µM) | 1 (≈ 1.08 µM) |  |  |  |  |  |  | 
C=C1CC[C@@H]2[C@](C)(CO)[C@H](O)CC[C@@]2(C)[C@@H]1C/C=C1/C(=O)OC[C@H]1OC(=O)CC | 16 (≈ 39.4 µM) | 4 (≈ 9.84 µM) | 32 (≈ 78.7 µM) | 8 (≈ 19.7 µM) | > 128 | > 128 | 16 (≈ 39.4 µM) | 6.4 |  | Active | Active | Active | Active

Second part, led by results:

MIC (Micrococcus luteus) [µg/mL] | MIC (Staphylococcus aureus) [µg/mL] | MIC (Pseudomonas fluorescens) [µg/mL] | MIC (Escherichia coli [1]) [µg/mL] | MIC (Aspergillus fumigatus) [µg/mL] | MIC (Rhizopus arrhizus) [µg/mL] | MIC (Candida albicans) [µg/mL] | SMILES | hemolysis at 25 ug/ml [2] [%] | Activity (Escherichia coli [3]) | Activity (Escherichia coli [4]) | Activity (Escherichia coli [5]) | Activity (Escherichia coli [6]) | Activity (Escherichia coli [7])
> 128 | > 128 | > 128 | > 128 | > 128 | > 128 | > 128 | C=C1CC[C@@H]2[C@](C)(CO)[C@H](O)CC[C@@]2(C)[C@@H]1C/C=C1/C(=O)OC[C@H]1O [ANDROGRAPHOLIDE] | 8.5 |  |  |  |  | 
64 (≈ 127 µM) | 16 (≈ 31.7 µM) | 64 (≈ 127 µM) | 32 (≈ 63.4 µM) | > 128 | > 128 | > 128 | C=C1CC[C@@H]2[C@](C)(CO)[C@H](O)CC[C@@]2(C)[C@@H]1C/C=C1/C(=O)OC[C@H]1OC(=O)CCCCCCCCC | 35 | Active |  |  |  | 
32 (≈ 76.1 µM) | 8 (≈ 19 µM) | 16 (≈ 38 µM) | 4 (≈ 9.51 µM) | > 128 | > 128 | 64 (≈ 152 µM) | C=C1CC[C@@H]2[C@](C)(CO)[C@H](O)CC[C@@]2(C)[C@@H]1C/C=C1/C(=O)OC[C@H]1OC(=O)CCC | 7.1 | Active | Active | Active | Active | Active
32 (≈ 81.5 µM) | 16 (≈ 40.8 µM) | 4 (≈ 10.2 µM) | 64 (≈ 163 µM) | > 128 | > 128 | 32 (≈ 81.5 µM) | C=C1CC[C@@H]2[C@](C)(CO)[C@H](O)CC[C@@]2(C)[C@@H]1C/C=C1/C(=O)OC[C@H]1OC(C)=O | 4.8 | Active |  |  |  | 
